Results from PubChem BioAssay (NCI).
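Cultured in 96-well plates, cells were exposed to test compound for 48 hours across five concentrations. TGI denotes the concentration required for complete inhibition of growth.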

What was measured:
Assay in all cases: NCI-60 cell line screen, 48 h
HOP-92 NSCLC = test system: HOP-92 NSCLC
DMS 114 small cell lung = test system: DMS 114 small cell lung
UACC-257 melanoma = test system: UACC-257 melanoma
NCI-H522 lung = test system: NCI-H522 lung
DMS 273 small cell lung = test system: DMS 273 small cell lung
HCT-15 colon = test system: HCT-15 colon
U251 CNS = test system: U251 CNS
NCI-H226 lung = test system: NCI-H226 lung
RXF-631 renal = test system: RXF-631 renal
SK-MEL-5 melanoma = test system: SK-MEL-5 melanoma
EKVX NSCLC = test system: EKVX NSCLC
OVCAR-4 ovarian = test system: OVCAR-4 ovarian
SK-MEL-28 melanoma = test system: SK-MEL-28 melanoma
SK-OV-3 ovarian = test system: SK-OV-3 ovarian
SN12C renal = test system: SN12C renal
OVCAR-3 ovarian = test system: OVCAR-3 ovarian
OVCAR-5 ovarian = test system: OVCAR-5 ovarian
SF-268 CNS = test system: SF-268 CNS
SF-295 CNS = test system: SF-295 CNS
SF-539 CNS = test system: SF-539 CNS
HCC-2998 colon = test system: HCC-2998 colon
NCI-H23 lung = test system: NCI-H23 lung
UO-31 renal = test system: UO-31 renal
UACC-62 melanoma = test system: UACC-62 melanoma
TK-10 renal = test system: TK-10 renal
MALME-3M melanoma = test system: MALME-3M melanoma
IGROV1 ovarian = test system: IGROV1 ovarian
M14 melanoma = test system: M14 melanoma
KM12 colon = test system: KM12 colon
HT29 colon = test system: HT29 colon
HOP-18 NSCLC = test system: HOP-18 NSCLC
HOP-62 NSCLC = test system: HOP-62 NSCLC
A498 renal = test system: A498 renal
SK-MEL-2 melanoma = test system: SK-MEL-2 melanoma
KM20L2 colon = test system: KM20L2 colon
HCT-116 colon = test system: HCT-116 colon
SNB-78 CNS = test system: SNB-78 CNS
HL-60(TB) leukemia = test system: HL-60(TB) leukemia
K-562 leukemia = test system: K-562 leukemia
MOLT-4 leukemia = test system: MOLT-4 leukemia
SR leukemia = test system: SR leukemia
COLO 205 colon = test system: COLO 205 colon
SW-620 colon = test system: SW-620 colon
OVCAR-8 ovarian = test system: OVCAR-8 ovarian
SNB-75 CNS = test system: SNB-75 CNS
CCRF-CEM leukemia = test system: CCRF-CEM leukemia
M19-MEL melanoma = test system: M19-MEL melanoma
DLD-1 colon = test system: DLD-1 colon
A549 NSCLC = test system: A549 NSCLC
ACHN renal = test system: ACHN renal
CAKI-1 renal = test system: CAKI-1 renal
RXF 393 renal = test system: RXF 393 renal
RPMI-8226 leukemia = test system: RPMI-8226 leukemia
XF 498 CNS = test system: XF 498 CNS
SNB-19 CNS = test system: SNB-19 CNS
LXFL 529 NSCLC = test system: LXFL 529 NSCLC
LOX IMVI melanoma = test system: LOX IMVI melanoma
NCI-H460 lung = test system: NCI-H460 lung
786-0 renal = test system: 786-0 renal

## O=P(Nc1ccccc1)(Oc1ccccc1)N(CCCl)CCCl (centres undefined)
HOP-92 NSCLC
  TGI: > 100 µM
DMS 114 small cell lung
  TGI: > 100 µM
UACC-257 melanoma
  TGI: > 100 µM
NCI-H522 lung
  TGI: 28.8 µM
DMS 273 small cell lung
  TGI: > 100 µM
HCT-15 colon
  TGI: > 100 µM
U251 CNS
  TGI: > 100 µM
NCI-H226 lung
  TGI: > 100 µM
RXF-631 renal
  TGI: > 100 µM
SK-MEL-5 melanoma
  TGI: > 100 µM
EKVX NSCLC
  TGI: > 100 µM
OVCAR-4 ovarian
  TGI: > 100 µM
SK-MEL-28 melanoma
  TGI: > 100 µM
SK-OV-3 ovarian
  TGI: 44.2 µM
SN12C renal
  TGI: > 100 µM
OVCAR-3 ovarian
  TGI: > 100 µM
OVCAR-5 ovarian
  TGI: > 100 µM
SF-268 CNS
  TGI: > 100 µM
SF-295 CNS
  TGI: > 100 µM
SF-539 CNS
  TGI: > 100 µM
HCC-2998 colon
  TGI: > 100 µM
NCI-H23 lung
  TGI: > 100 µM
UO-31 renal
  TGI: 28.2 µM
UACC-62 melanoma
  TGI: > 100 µM
TK-10 renal
  TGI: > 100 µM
MALME-3M melanoma
  TGI: > 100 µM
IGROV1 ovarian
  TGI: > 100 µM
M14 melanoma
  TGI: > 100 µM
KM12 colon
  TGI: > 100 µM
HT29 colon
  TGI: > 100 µM
HOP-18 NSCLC
  TGI: > 100 µM
HOP-62 NSCLC
  TGI: > 100 µM
A498 renal
  TGI: > 100 µM
SK-MEL-2 melanoma
  TGI: > 100 µM
KM20L2 colon
  TGI: > 100 µM
HCT-116 colon
  TGI: > 100 µM
SNB-78 CNS
  TGI: > 100 µM
HL-60(TB) leukemia
  TGI: > 100 µM
K-562 leukemia
  TGI: > 100 µM
MOLT-4 leukemia
  TGI: > 100 µM
SR leukemia
  TGI: > 100 µM
COLO 205 colon
  TGI: > 100 µM
SW-620 colon
  TGI: > 100 µM
OVCAR-8 ovarian
  TGI: > 100 µM
SNB-75 CNS
  TGI: > 100 µM
CCRF-CEM leukemia
  TGI: > 100 µM
M19-MEL melanoma
  TGI: > 100 µM
DLD-1 colon
  TGI: > 100 µM
A549 NSCLC
  TGI: > 100 µM
ACHN renal
  TGI: > 100 µM
CAKI-1 renal
  TGI: > 100 µM

## CCOC(=O)C12C(C(=O)OC)=C(C)N(NC(=O)Nc3ccccc3)C1(N)N(NC(=O)Nc1ccccc1)C(C)=C2C(=O)OC (centres undefined)
HOP-92 NSCLC
  TGI: 66.3 µM
DMS 114 small cell lung
  TGI: 83.6 µM
UACC-257 melanoma
  TGI: 62.9 µM
NCI-H522 lung
  TGI: 55.3 µM
DMS 273 small cell lung
  TGI: > 72.2 µM
HCT-15 colon
  TGI: > 100 µM
U251 CNS
  TGI: 35.8 µM
NCI-H226 lung
  TGI: > 100 µM
SK-MEL-5 melanoma
  TGI: 39.3 µM
EKVX NSCLC
  TGI: > 100 µM
OVCAR-4 ovarian
  TGI: > 100 µM
SK-MEL-28 melanoma
  TGI: > 88.7 µM
SK-OV-3 ovarian
  TGI: > 100 µM
SN12C renal
  TGI: > 100 µM
OVCAR-3 ovarian
  TGI: 60.2 µM
OVCAR-5 ovarian
  TGI: > 100 µM
RXF 393 renal
  TGI: 74.3 µM
SF-268 CNS
  TGI: > 86.7 µM
SF-295 CNS
  TGI: 60 µM
SF-539 CNS
  TGI: 37.9 µM
HCC-2998 colon
  TGI: 86.8 µM
RPMI-8226 leukemia
  TGI: 74 µM
NCI-H23 lung
  TGI: > 100 µM
UO-31 renal
  TGI: > 100 µM
UACC-62 melanoma
  TGI: 34.5 µM
XF 498 CNS
  TGI: 59.1 µM
SNB-19 CNS
  TGI: > 100 µM
TK-10 renal
  TGI: > 100 µM
MALME-3M melanoma
  TGI: 50.7 µM
IGROV1 ovarian
  TGI: > 100 µM
LXFL 529 NSCLC
  TGI: > 79.5 µM
M14 melanoma
  TGI: 45.6 µM
KM12 colon
  TGI: 47.8 µM
HT29 colon
  TGI: 52.9 µM
HOP-18 NSCLC
  TGI: > 86 µM
HOP-62 NSCLC
  TGI: 49 µM
A498 renal
  TGI: > 100 µM
SK-MEL-2 melanoma
  TGI: 37.5 µM
KM20L2 colon
  TGI: 42.8 µM
HCT-116 colon
  TGI: 59.4 µM
SNB-78 CNS
  TGI: > 100 µM
HL-60(TB) leukemia
  TGI: 48.8 µM
K-562 leukemia
  TGI: > 73.5 µM
MOLT-4 leukemia
  TGI: 46.7 µM
SR leukemia
  TGI: 59.1 µM
LOX IMVI melanoma
  TGI: 33.6 µM
NCI-H460 lung
  TGI: > 94.2 µM
786-0 renal
  TGI: > 100 µM
COLO 205 colon
  TGI: > 56.2 µM
SW-620 colon
  TGI: > 100 µM
OVCAR-8 ovarian
  TGI: > 100 µM
SNB-75 CNS
  TGI: > 100 µM
CCRF-CEM leukemia
  TGI: 59 µM
M19-MEL melanoma
  TGI: 33.2 µM
DLD-1 colon
  TGI: > 100 µM
A549 NSCLC
  TGI: > 100 µM
ACHN renal
  TGI: > 100 µM
CAKI-1 renal
  TGI: > 100 µM
